Reference: patent publication US20060025390A1, “Treatment of hormone allergy and related symptoms and disorders” (priority 2004, published 2006)

Legend:
women with acute asthma = assay: Symptom relief in women with acute asthma after intradermal progesterone (0 to 10 scale); type: in vivo, human
Experimental: To test this hypothesis, 142 women with acute asthma were asked to evaluate the severity of their symptoms using an eleven point scale. Ten was assigned to the most severe symptoms, while 0 was assigned to an absence of symptoms. Immediately after assessing their symptoms on this scale, patents were administered 0.5 mg of progesterone by intradermal injection.
Approximately 15 to 30 seconds after the injection was administered, each patient was asked if their symptoms were worse, better, or unchanged. Each patient was also asked to rate their present symptoms on the same 0 to 10 scale.
Of the 142 patients tested 129 (91%) positively responded to the treatment. Using the random effects calculations described in Example 2, this correlates to a less than 0.1% chance that the results are random. Thus the results may be considered highly significant.
Hormone samples may be prepared in any way suitable for the intended administration route. For administration through intradermal injection, samples may be prepared as they were in the studies of Examples 2 and 3. Specifically, the progesterone was formulated from commercially available injectable progesterone. Each ml of the final formulation contained […] of progesterone and 10% benzyl alcohol as a preservative in sesame oil. 0.1 ml was administered per patient intradermally. Estrogen samples were similarly prepared.

[1] = test system: serum IgE anti-17-α-hydroxyprogesterone antibodies; assay: ELISA binding of IgE 17-α-hydroxyprogesterone antibodies to different hormones in solid phase; set-up: species or system human; conditions: for IgE binding (optical density): hormone in solid phase, 405 nm; for IgE % reaction: relative to 17-α-hydroxyprogesterone = 100
Experimental: (§1) The ELISA inhibition method was used to determine specificity and cross-reactivity between different hormones and to ensure the degree of human IgG, IgM and IgE estrogen or progesterone binding to estrogen or progesterone in solid phase. […] 100 μl of sera from three different patients with high IgG, IgM or IgE antibodies against 17-α-hydroxyprogesterone was added to all wells. After shaking and incubation for 1 hr at room temperature, addition of enzyme labeled anti-human IgG, IgM or IgE, repeat of incubation, washing, and addition of substrate, color development was measured at 405 nm. Results were calculated as percentage of anti-17-α-hydroxyprogesterone binding to 17-α-hydroxyprogesterone and other hormones. Also, anti-estrogen binding to estrogen and other hormones in solid phase by progesterone in liquid phase was performed and calculated in a similar manner.
(§2) Human sera containing 17-α-hydroxyprogesterone IgG-, IgM- and IgE-binding antibodies were reacted against progesterone, estrogen, hydrocortisone and cholesterol. In comparison to 100% binding of anti-17-α-hydroxyprogesterone-binding to 17-α-hydroxyprogesterone, the IgG anti-17-α-hydroxyprogesterone-binding to progesterone, estrogen, hydrocortisone and cholesterol was 69-77%, 25-30%, 39-53%, and less than 10% respectively (Table 4). The % binding of serum IgM and IgE anti-17-α-hydroxyprogesterone to 17-1-hydroxyprogesterone, progesterone, estrogen, hydrocortisone and cholesterol was similar to the binding of IgG. This binding of anti-17-α-hydroxyprogesterone to progesterone was the highest, followed by hydrocortisone, then estrogen, to almost no binding with cholesterol. Similar to this, human sera with IgG, IgM and IgE binding antibodies against estrogen were reacted with progesterone, 17-α-hydroxyprogesterone, hydrocortisone and cholesterol, in the presence of estrogen.

[2] = test system: serum IgM anti-estrogen antibodies; assay: ELISA binding of IgM estrogen antibodies to different hormones in solid phase; set-up: species or system human; conditions: for IgM binding (optical density): hormone in solid phase, 405 nm; for IgM % reaction: relative to estrogen = 100
Experimental: as §1, §2

[3] = 0.5 mg intradermal, acute asthma
[4] = of 142 women with acute asthma, 0.5 mg intradermal, 15 to 30 seconds after injection

IgE binding (optical density) ([1]; sample 1): 0.94
IgE % reaction ([1]; sample 1): −65%
IgE binding (optical density) ([1]; sample 2): 1.7
IgE % reaction ([1]; sample 2): −71%
IgE binding (optical density) ([1]; sample 3): 0.82
IgE % reaction ([1]; sample 3): −77%
IgM binding (optical density) ([2]; sample 1): 0.26
IgM % reaction ([2]; sample 1): −29%
IgM binding (optical density) ([2]; sample 2): 0.65
IgM % reaction ([2]; sample 2): −31%
IgM binding (optical density) ([2]; sample 3): 0.44
IgM % reaction ([2]; sample 3): −34%
Compound: CC(=O)[C@H]1CC[C@H]2[C@@H]3CCC4=CC(=O)CC[C@]4(C)[C@H]3CC[C@]12C [Progesterone, progesterone]
average symptomatic relief, patients who reported some response (women with acute asthma; 0 to 10 scale): 5 points
average symptomatic relief, all patients (women with acute asthma; 0 to 10 scale, responding and not responding patients): 3.4 points
average reduction in symptoms relative to maximum individual patient score (women with acute asthma; [3]): 62%
patients reporting 100% relief of asthma symptoms (%) (women with acute asthma; [3]): 28%
patients reporting 100% relief of asthma symptoms (number) (women with acute asthma; [3]): 40
patients who positively responded to the treatment (%) (women with acute asthma; [4]): 91%
patients who positively responded to the treatment (number) (women with acute asthma; [4]): 129
